Literature values in patent US7368249B2, “Methods and compositions for evaluation and modulation of fertility” (The Curators of the University of Missouri, priority 2003, dated 2008).

System: maturing reticulocytes
Settings: presence vs absence of ETYA

## CCCCCC#CCC#CCC#CCC#CCCCC(=O)O [ETYA, 5,8,11,14-eicosatetraynoic acid]
  mitochondrial degradation in maturing reticulocytes: delayed
